Measured values published in patent US20250092065A1, “2-(INDAZOL-5-YL)-6-(PIPERIDIN-4-YL)-1,7-NAPHTHYRIDINE DERIVATIVES AND RELATED COMPOUNDS AS MODULATORS FOR SPLICING NUCLEIC ACIDS AND FOR THE TREATMENT OF PROLIFERATIVE DISEASES” (REMIX THERAPEUTICS INC., priority 2022, published 2025).

Columns and labels:
Type in all cases: cell-based, human
Settings in all cases: HiBiT knock-in K562 cells, 24 hours, top dose 10 μM
[1] = test system: MYB; experiment: HiBiT protein abundance assay, MYB (K562 HiBiT knock-in)
In short: (§1)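 Luminescence readout: Nano-Glo HiBiT lytic detection after 24 h compound exposure of K562 HiBiT knock-in cells, 10000 cells/well. Dosing 10-pt, 3-fold, top 10 μM final. % response vs untreated parental K562 and DMSO controls; 4PL fit, IC50 = concentration giving 50% protein abundance.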

[2] = test system: Target C; experiment: HiBiT protein abundance assay, Target C (K562 HiBiT knock-in)
In short: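 K562 HiBiT knock-in cells (10000/well) were treated 24 h at 37° C with a 10-point 3-fold dilution series (top 10 μM final, ≤0.25% DMSO). HiBiT luminescence was read after lytic LgBiT detection. Percent response used unmodified K562 and DMSO-treated knock-in controls, and IC50 came from a four-parameter fit at 50% of untreated.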

[3] = test system: HTT; experiment: HiBiT protein abundance assay, HTT (K562 HiBiT knock-in)
In short: as §1

For `C[C@H]1C[C@H](c2ccc3nc(-c4cc5cn(C)nc5c(F)c4O)ccc3n2)CCN1` (single isomer, unassigned) [Compound 356], the IC50 [1] was less than 100 nM, the IC50 [2] was less than 100 nM and the IC50 [3] was less than 100 nM.
Compound `Cc1c(O)c(-c2ccc3nc(N4CC[C@H](N[C@H]5C[C@H](F)C5)C4)ccc3n2)cc2cn(C)nc12` (single isomer, unassigned) [Compound 358] has an IC50 [1] of less than 100 nM, an IC50 [2] of less than 100 nM and an IC50 [3] of less than 100 nM.
`Cn1cc2cc(-c3ccc4nc(N5CC[C@@H](N)C5)ccc4n3)c(O)c(F)c2n1` (single isomer, unassigned) [Compound 362] showed an IC50 [1] of less than 100 nM, an IC50 [2] of less than 100 nM and an IC50 [3] of less than 100 nM.
`CN[C@@H]1CCN(c2ccc3nc(-c4cc5cn(C)nc5c(C)c4O)ncc3n2)C1` (single isomer, unassigned) [Compound 368] showed an IC50 [1] of less than 100 nM, an IC50 [2] of 100 to 1000 nM and an IC50 [3] of 100 to 1000 nM.
`CN[C@H]1CCN(c2ccc3nc(-c4cc5cn(C)nc5c(C)c4O)ncc3n2)C1` (single isomer, unassigned) [Compound 369] was tested, and the IC50 [1] was less than 100 nM, the IC50 [2] was 100 to 1000 nM and the IC50 [3] was 100 to 1000 nM.
`Cc1nc2c(F)c(O)c(-c3ccc4nc(N5CC[C@H](NC6(CF)CC6)C5)ccc4n3)cc2o1` (single isomer, unassigned) [Compound 373] showed an IC50 [1] of less than 100 nM, an IC50 [2] of less than 100 nM and an IC50 [3] of less than 100 nM.
In the case of `Cc1nc2c(C)c(O)c(-c3ccc4nc(N5CC[C@H](NC6(CF)CC6)C5)ccc4n3)cc2o1` (single isomer, unassigned) [Compound 378], the IC50 [1] is reported as less than 100 nM, the IC50 [2] is reported as less than 100 nM and the IC50 [3] is reported as less than 100 nM.
In the case of `Cc1nc2c(C)c(O)c(-c3ccc4nc(N5CC[C@@H](NC6(CF)CC6)C5)ccc4n3)cc2o1` (single isomer, unassigned) [Compound 379], the IC50 [1] is reported as less than 100 nM, the IC50 [2] is reported as 100 to 1000 nM and the IC50 [3] is reported as less than 100 nM.
`Cn1cc2cc(-c3ncc4nc(N5CC[C@@H](N)C5)ccc4n3)c(O)c(F)c2n1` (single isomer, unassigned) [Compound 380] was tested, and the IC50 [1] was less than 100 nM, the IC50 [2] was 100 to 1000 nM and the IC50 [3] was less than 100 nM.
Compound `C[C@H]1C[C@@H](c2ccc3nc(-c4cc5cn(C)nc5c(F)c4O)ccc3n2)CCN1` (single isomer, unassigned) [Compound 383] has an IC50 [1] of less than 100 nM, an IC50 [2] of less than 100 nM and an IC50 [3] of less than 100 nM.
Compound `Cn1cc2cc(-c3ccc4nc(C5CCNC[C@H]5O)ccc4n3)c(O)cc2n1` (single isomer, unassigned) [Compound 386] has an IC50 [1] of 100 to 1000 nM, an IC50 [2] of 1000 to 10000 nM and an IC50 [3] of 1000 to 10000 nM.
With `Cn1cc2cc(-c3ccc4nc(N5CC[C@@H](NC(C)(C)C)C5)ccc4n3)c(O)c(F)c2n1` (single isomer, unassigned) [Compound 391] the IC50 [1] was less than 100 nM, the IC50 [2] was less than 100 nM and the IC50 [3] was less than 100 nM.
In the case of `Cn1cc2cc(-c3ccc4nc(N5CC[C@H](NC(C)(C)C)C5)ccc4n3)c(O)c(F)c2n1` (single isomer, unassigned) [Compound 392], the IC50 [1] is reported as less than 100 nM, the IC50 [2] is reported as less than 100 nM and the IC50 [3] is reported as less than 100 nM.
With `Cc1c(O)c(-c2ncc3nc([C@@H]4CCNC4)ccc3n2)cc2cn(C)nc12` (single isomer, unassigned) [Compound 398] the IC50 [1] was 100 to 1000 nM, the IC50 [2] was 1000 to 10000 nM and the IC50 [3] was 1000 to 10000 nM.
`Cc1nc2c(C)c(O)c(-c3ccc4nc(N5CC[C@@H](NC6CC6)C5)ncc4n3)cc2o1` (single isomer, unassigned) [Compound 432] gave an IC50 [1] of 100 to 1000 nM, an IC50 [2] of less than 100 nM and an IC50 [3] of less than 100 nM.
For `Cc1nc2cc(O)c(-c3ccc4nc(N5CC[C@@H](NC6CC6)C5)ncc4n3)cc2o1` (single isomer, unassigned) [Compound 434], the IC50 [1] was 100 to 1000 nM, the IC50 [2] was less than 100 nM and the IC50 [3] was 100 to 1000 nM.
`Cc1nc2c(C)c(O)c(-c3ccc4cc(N5CC[C@@H](NC(C)(C)C)C5)ncc4n3)cc2o1` (single isomer, unassigned) [Compound 444] showed an IC50 [1] of less than 100 nM, an IC50 [2] of 100 to 1000 nM and an IC50 [3] of less than 100 nM.
With `Cc1nc2c(C)c(O)c(-c3ccc4cc(N5CC[C@H](NC(C)(C)C)C5)ncc4n3)cc2o1` (single isomer, unassigned) [Compound 445] the IC50 [1] was 100 to 1000 nM, the IC50 [2] was 1000 to 10000 nM and the IC50 [3] was 100 to 1000 nM.
`Cc1nc2cc(O)c(-c3ccc4nc(N5CC[C@@H](NC6(CF)CC6)C5)ccc4n3)cc2o1` (single isomer, unassigned) [Compound 488] was tested, and the IC50 [1] was 100 to 1000 nM, the IC50 [2] was less than 100 nM and the IC50 [3] was less than 100 nM.
Work on `Cc1nc2cc(O)c(-c3ccc4nc(N5CC[C@H](NC6(CF)CC6)C5)ccc4n3)cc2o1` (single isomer, unassigned) [Compound 489] yielded an IC50 [1] of less than 100 nM, an IC50 [2] of less than 100 nM and an IC50 [3] of less than 100 nM.
For `Cc1nc2c(F)c(O)c(-c3ccc4nc(N5CC[C@@H](NC6(CF)CC6)C5)ccc4n3)cc2o1` (single isomer, unassigned) [Compound 491], the IC50 [1] was less than 100 nM, the IC50 [2] was less than 100 nM and the IC50 [3] was less than 100 nM.
`Cn1cc2cc(-c3ccc4nc(N5CCC(NC6(CF)CC6)C5)ccc4n3)c(O)c(F)c2n1` (stereo in doubt) [Compound 353, 7-fluoro-5-{6-[(3R)-3-{[1-(fluoromethyl)cyclopropyl]amino}pyrrolidin-1-yl]-1,5-naphthyridin-2-yl}-2-methylindazol-6-ol] gave an IC50 [1] of less than 100 nM, an IC50 [2] of less than 100 nM and an IC50 [3] of less than 100 nM.
Work on `Cn1cc2cc(-c3ccc4nc(N5CCC(NC6(CF)CC6)C5)ccc4n3)c(O)c(F)c2n1` (stereo in doubt) [Compound 357, 7-fluoro-5-{6-[(3S)-3-{[1-(fluoromethyl)cyclopropyl]amino}pyrrolidin-1-yl]-1,5-naphthyridin-2-yl}-2-methylindazol-6-ol] yielded an IC50 [1] of less than 100 nM, an IC50 [2] of less than 100 nM and an IC50 [3] of less than 100 nM.
With `Cn1cc2cc(-c3ccc4nc(N5CCC(N)C5)ccc4n3)c(O)c(F)c2n1` (stereo in doubt) [Compound 363, 5-{6-[(3R)-3-aminopyrrolidin-1-yl]-1,5-naphthyridin-2-yl}-7-fluoro-2-methylindazol-6-ol] the IC50 [1] was less than 100 nM, the IC50 [2] was less than 100 nM and the IC50 [3] was less than 100 nM.
In the case of `Cc1nc2c(F)c(O)c(-c3ccc4nc(N5CC[C@@H](N[C@H]6C[C@@H](F)C6)C5)ccc4n3)cc2o1` (stereo in doubt) [Compound 375], the IC50 [1] is reported as less than 100 nM, the IC50 [2] is reported as less than 100 nM and the IC50 [3] is reported as less than 100 nM.
Work on `Cc1nc2c(C)c(O)c(-c3ccc4nc(N5CC[C@@H](N[C@H]6C[C@@H](F)C6)C5)ccc4n3)cc2o1` (stereo in doubt) [Compound 376] yielded an IC50 [1] of less than 100 nM, an IC50 [2] of less than 100 nM and an IC50 [3] of less than 100 nM.
With `Cc1nc2c(C)c(O)c(-c3ccc4nc(N5CC[C@H](N[C@H]6C[C@@H](F)C6)C5)ccc4n3)cc2o1` (stereo in doubt) [Compound 377] the IC50 [1] was less than 100 nM, the IC50 [2] was less than 100 nM and the IC50 [3] was less than 100 nM.
With `Cc1nc2cc(O)c(-c3ccc4nc(N5CC[C@@H](N[C@H]6C[C@@H](F)C6)C5)ccc4n3)cc2o1` (stereo in doubt) [Compound 395] the IC50 [1] was 100 to 1000 nM, the IC50 [2] was 100 to 1000 nM and the IC50 [3] was 100 to 1000 nM.
With `Cc1nc2cc(O)c(-c3ccc4nc(N5CC[C@H](N[C@H]6C[C@@H](F)C6)C5)ccc4n3)cc2o1` (stereo in doubt) [Compound 396] the IC50 [1] was 100 to 1000 nM, the IC50 [2] was less than 100 nM and the IC50 [3] was less than 100 nM.
`Cn1cc2cc(-c3ccc4nc(N5CC[C@@H](NC6(CF)CC6)C5)ccc4n3)c(O)cc2n1` [Compound 354, 5-{6-[(3R)-3-{[1-(fluoromethyl)cyclopropyl]amino}pyrrolidin-1-yl]-1,5-naphthyridin-2-yl}-2-methylindazol-6-ol] showed an IC50 [1] of less than 100 nM, an IC50 [2] of less than 100 nM and an IC50 [3] of less than 100 nM.
`Cn1cc2cc(-c3ccc4nc(N5CC[C@H](NC6(CF)CC6)C5)ccc4n3)c(O)cc2n1` [Compound 355, 5-{6-[(3S)-3-{[1-(fluoromethyl)cyclopropyl]amino}pyrrolidin-1-yl]-1,5-naphthyridin-2-yl}-2-methylindazol-6-ol] gave an IC50 [1] of less than 100 nM, an IC50 [2] of less than 100 nM and an IC50 [3] of less than 100 nM.
`Cc1c(O)c(-c2ccc3nc(N4CCC(NC5(CF)CC5)C4)ccc3n2)cc2cn(C)nc12` (stereo not drawn) [Compound 360, 5-[6-(3-{[1-(fluoromethyl)cyclopropyl]amino}pyrrolidin-1-yl)-1,5-naphthyridin-2-yl]-2,7-dimethylindazol-6-ol] gave an IC50 [1] of less than 100 nM, an IC50 [2] of less than 100 nM and an IC50 [3] of less than 100 nM.
`Cc1c(O)c(-c2cc(C(C)O)c3nc(N4CCNCC4)ccc3n2)cc2cn(C)nc12` (stereo not drawn) [Compound 364, 5-[4-(1-hydroxyethyl)-6-(piperazin-1-yl)-1,5-naphthyridin-2-yl]-2,7-dimethylindazol-6-ol] gave an IC50 [1] of 1000 to 10000 nM, an IC50 [2] of 1000 to 10000 nM and an IC50 [3] greater than 10000 nM.
`Cc1c(O)c(-c2ncc3nc(C4CCNCC4)ccc3n2)cc2cn(C)nc12` [Compound 370, 2,7-dimethyl-5-[6-(piperidin-4-yl)pyrido[3,2-d]pyrimidin-2-yl]indazol-6-ol] showed an IC50 [1] of 100 to 1000 nM, an IC50 [2] of 100 to 1000 nM and an IC50 [3] of 100 to 1000 nM.
For `Cc1nc2c(F)c(O)c(-c3ccc4nc(N5CC[C@H](N[C@H]6C[C@@H](F)C6)C5)ccc4n3)cc2o1` [Compound 374, 4-fluoro-2-methyl-6-[6-(3-{[(1r,3r)-3-fluorocyclobutyl]amino}pyrrolidin-1-yl)-1,5-naphthyridin-2-yl]-1,3-benzoxazol-5-ol], the IC50 [1] was less than 100 nM, the IC50 [2] was less than 100 nM and the IC50 [3] was less than 100 nM.
`CNC1CCN(c2ccc3nc(-c4cc(C#N)c5nc(C)cn5c4)ncc3n2)C1` (stereo not drawn) [Compound 382, 2-methyl-6-{6-[3-(methylamino)pyrrolidin-1-yl]pyrido[3,2-d]pyrimidin-2-yl}imidazo[1,2-a]pyridine-8-carbonitrile] gave an IC50 [1] of less than 100 nM, an IC50 [2] of 1000 to 10000 nM and an IC50 [3] of 100 to 1000 nM.
In the case of `Cn1cc2cc(-c3ccc4nc(N5CC[C@H](NC6CC(F)(F)C6)C5)ccc4n3)c(O)cc2n1` [Compound 384], the IC50 [1] is reported as 1000 to 10000 nM, the IC50 [2] is reported as 1000 to 10000 nM and the IC50 [3] is reported as 1000 to 10000 nM.
